Assay results published in patent US20070248955A1, “Use Of Genetic Polymorphisms To Predict Drug-Induced Hepatotoxicity” (NOVARTIS AG, priority 2003, published 2007).

Assay: Hepatotoxicity (fold increases of AST or ALT over the upper limit of normal) in the phase II clinical trial
Assay type: in vivo, human
Procedure: Relevant genetic polymorphisms were identified in a multicenter, randomized, double-masked placebo-controlled dose finding phase II trial of N-benzoyl-staurosporine, which was conducted in subjects with diabetic macular edema. The safety of N-benzoyl-staurosporine was evaluated in the subjects and additional pharmacokinetic information on was collected. […] Subjects were flagged as having experienced hepatotoxicity if either aspartate aminotransferase (AST) or alanine aminotransferase (ALT) had fold elevations over the upper limit of normal on visit 3, 4 or 5.
The diagnosis of hepatotoxicity can be accomplished using assays of serum enzyme levels. Serum enzyme assays indicative of liver dysfunction are well-known to those of skill in the medical arts and routine in hospital laboratories. For a definition of hepatotoxicity based upon serum levels of aspartate transaminase (AST) and used in the EXAMPLE: The definition of hepatotoxicity used in this analysis was based on fold increases in serum aspartate transaminase or alanine aminotransferase over the upper limit of normal (ULN) on visits 3, 4 or 5. The upper limit of normal for serum aspartate transaminase is 42 U/L for ages 3-64 and 55 U/L for ages 65 and up; for serum alanine aminotransferase the upper limit of normal is 48 U/L (Smithkline Beecham Clinical Laboratories Reference Alert Ranges). While an elevation of either enzyme at visit 3, 4 or 5 constituted hepatotoxicity, transaminase elevations were disregarded during subsequent visits when the drug was not being administered. Furthermore, subjects who had elevated liver function tests at baseline (visit 2) were not flagged as having experienced hepatotoxicity, regardless of the elevation in their enzyme levels following administration of the drug. Nine subjects were flagged as having experienced hepatotoxicity. Of these, six consented to clinical pharmacogenetic analysis.
Hepatotoxicity and N-benzoyl-staurosporine metabolism. The relationship between the occurrence of hepatotoxicity in the clinical trial and the dose of N-benzoyl-staurosporine administered was examined. The percentage of subjects per dose group that experienced hepatotoxicity are as follows: 3% for 50 mg/day, 8% for 100 mg/day and 14% of those that took 150 mg/day. While most of the subjects that experienced liver toxicity took the highest dose of N-benzoyl-staurosporine, the association between of N-benzoyl-staurosporine dose and hepatotoxicity is not significant (p=0.09; Fisher's Exact).

Question: For CO[C@@H]1[C@H](N(C)C(=O)c2ccccc2)C[C@H]2O[C@]1(C)n1c3ccccc3c3c4c(c5c6ccccc6n2c5c31)C(=O)NC4 [N-benzoyl-staurosporine], which “percentage of subjects per dose group that experienced hepatotoxicity” value (50 mg/day, subjects with diabetic macular edema) is on record?
Answer: The value was 3%.

Question: What about the “percentage of subjects per dose group that experienced hepatotoxicity” value (100 mg/day, subjects with diabetic macular edema) of the same compound?
Answer: Its value is 8%.

Question: And the “percentage of subjects per dose group that experienced hepatotoxicity” value (150 mg/day, subjects with diabetic macular edema)?
Answer: The value was 14%.

Question: And the “Hepatotoxicity Yes” value (CPG samples (83 subjects, all arms incl. 0 mg/day))?
Answer: Its value is 7%.

Question: And the “Hepatotoxicity Yes” value (Trial samples (139 subjects, all arms incl. 0 mg/day))?
Answer: The value was 6%.

Question: And the “subjects that experienced hepatotoxicity” value (of the 140 subjects enrolled in the clinical trial (all arms))?
Answer: Its value is “nine”.

Question: What about the safety profile (phase II trial, subjects with diabetic macular edema) of the same compound?
Answer: Its safety profile is “good safety profile”.
